Our source for the MIC values is patent US12338263B2, “Antibacterial aminoglycoside derivatives” (priority 2019, dated 2025).

In brackets after ≈: the same amount, converted by molar mass. Read-outs that look alike come from different tables or passages of the source.

Common to all, as to experiment: Antibacterial effect (MIC), micro-liquid dilution method (CLSI)
Format in all cases: cell-based

The test system of assay [1] is E. coli ATCC BAA-2523. As to conditions: Escherichia coli, ATCCBAA2523. The protocol: (§1) Three strains Enterobacteriaceae E. coli ATCC 25922, E. coli ATCC BAA-2523, K. pneumonia ATCC BAA-1705 were used to determine the Minimum Inhibitory Concentration (MIC) of each compound by the micro-liquid dilution method according to the requirements of the Institute of Clinical and Laboratory Standard (CLSI). 2-fold series diluted compounds (with a final concentration range […]) were added to a round bottom 96-well plate (Catalog #3788, Corning). A single clone of fresh bacteria on the plate of Mueller Hinton II Agar (MHA, Cat. No. 211438, BD BBL™) after overnight culture was picked and suspended in sterile saline to adjust the concentration to 1×10^8 CFU/mL, and then diluted to 5×10^5 CFU/mL by Cation-Adjusted Mueller Hinton II Broth (MHB, Catalog #212332, BD BBL™), 100 μL of which was added to the round bottom 96-well plate containing the drug. The plate was inverted and incubated at 37° C. for 20-24 hours, and the MIC value was read. The lowest drug concentration that inhibits bacterial growth was defined as MIC.

The subject of assay [2] is K. pneumoniae ATCC BAA-1705. As to conditions: Klebsiella pneumoniae, ATCCBAA1705. The protocol: as §1
The subject of assay [3] is E. coli ATCC 25922. As to conditions: Escherichia coli, ATCC25922. The protocol:
as §1

As for `CN[C@@H]1[C@@H](O)[C@@H](O[C@@H]2[C@@H](O)[C@H](O[C@H]3OC(CNCCCONC(=N)N)=CC[C@H]3N)[C@@H](N)C[C@H]2NC(=O)[C@@H](O)CCN)OC[C@]1(C)O` [Compound 3], the MIC in assay [1] was 1 µM (≈ 0.664 µg/mL); in assay [2], 0.25 µM (≈ 0.166 µg/mL); in assay [3] it was 0.5 µM (≈ 0.332 µg/mL).

Turning to `CN[C@@H]1[C@@H](O)[C@@H](O[C@@H]2[C@@H](O)[C@H](O[C@H]3OC(CNCCOCCONC(=N)NCC(F)F)=CC[C@H]3N)[C@@H](N)C[C@H]2NC(=O)[C@@H](O)CCN)OC[C@]1(C)O` [Compound 2], the MIC in assay [1] (E. coli ATCC BAA-2523, 37° C., 20-24 hours, read-out: MIC) amounted to 4 µM (≈ 3.03 µg/mL); in assay [2] (K. pneumoniae ATCC BAA-1705, 37° C., 20-24 hours, read-out: MIC), 4 µM (≈ 3.03 µg/mL); in assay [3] (E. coli ATCC 25922, 37° C., 20-24 hours, read-out: MIC), 2 µM (≈ 1.52 µg/mL).

Broadly, the MIC is the least concentration at which growth counts as inhibited.
